Experimental data published in publication PMC4051630, “A Comparison of Protein Kinases Inhibitor Screening Methods Using Both Enzymatic Activity and Binding Affinity Determination” (PLoS ONE, 2014).

How the values were obtained:
Test in all cases: Differential Scanning Fluorimetry (DSF) Tm shift
Assay type in all cases: binding
CDK2 + Cyclin E = target: T1, CDK2 + Cyclin E (Homo sapiens, UniProt P24941); settings: CDK2 + Cyclin E; 2 µM protein, 10 µM inhibitor; average of 3 experiments, each in duplicate
T1 construct: CDK2 (P24941); 1–299; His-tag; made in house; host or cells: Escherichia coli

FES Catalytic Domain = target: T2, FES Catalytic Domain (Homo sapiens, UniProt P07332); settings: 2 µM protein, 10 µM inhibitor, average of 3 experiments, each in duplicate
T2 construct: For all of them, we expressed and purified the catalytic domain separately; His-tag; made in house; host or cells: Escherichia coli

[1] = target: T3, STK3 Catalytic domain+SARAH (Homo sapiens, UniProt Q13188); settings: 2 µM protein, 10 µM inhibitor, average of 3 experiments, each in duplicate
T3 construct: for 8, we also made a longer version containing one or more additional domains; His-tag; made in house; host or cells: Escherichia coli
T3 sequence (Q13188 1-491): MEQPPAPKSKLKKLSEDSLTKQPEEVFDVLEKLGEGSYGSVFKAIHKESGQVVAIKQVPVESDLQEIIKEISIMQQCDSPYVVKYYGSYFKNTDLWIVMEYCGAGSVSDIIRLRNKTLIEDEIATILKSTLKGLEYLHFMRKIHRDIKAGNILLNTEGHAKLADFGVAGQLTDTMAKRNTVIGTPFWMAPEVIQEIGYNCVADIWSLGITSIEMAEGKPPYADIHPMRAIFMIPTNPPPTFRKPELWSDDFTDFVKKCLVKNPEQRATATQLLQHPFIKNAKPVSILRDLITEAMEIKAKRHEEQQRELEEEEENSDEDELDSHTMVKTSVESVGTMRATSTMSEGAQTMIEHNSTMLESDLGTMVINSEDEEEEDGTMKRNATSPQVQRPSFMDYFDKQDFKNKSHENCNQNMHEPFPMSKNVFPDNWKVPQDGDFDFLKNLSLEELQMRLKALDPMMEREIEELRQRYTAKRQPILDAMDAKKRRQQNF

CDK2 + Cyclin A = target: T4, CDK2 + Cyclin A (Homo sapiens, UniProt P24941); settings: CDK2 + Cyclin A; 2 µM protein, 10 µM inhibitor; average of 3 experiments, each in duplicate
T4 construct: CDK2 (P24941); 1–299; His-tag; made in house; host or cells: Escherichia coli

STK3 Catalytic Domain = target: T5, STK3 Catalytic Domain (Homo sapiens, UniProt Q13188); settings: 2 µM protein, 10 µM inhibitor, average of 3 experiments, each in duplicate
T5 construct: For all of them, we expressed and purified the catalytic domain separately; His-tag; made in house; host or cells: Escherichia coli
T5 sequence (Q13188 27-278 limits assumed): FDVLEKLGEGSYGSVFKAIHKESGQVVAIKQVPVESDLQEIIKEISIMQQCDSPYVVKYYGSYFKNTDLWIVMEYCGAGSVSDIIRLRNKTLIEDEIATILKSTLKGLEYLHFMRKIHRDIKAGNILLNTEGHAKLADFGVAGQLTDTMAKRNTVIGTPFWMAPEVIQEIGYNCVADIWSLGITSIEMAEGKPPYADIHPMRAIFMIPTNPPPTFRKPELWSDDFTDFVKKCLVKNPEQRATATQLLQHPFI

PAK4 Catalytic Domain = target: T6, PAK4 Catalytic Domain (Homo sapiens, UniProt O96013); settings: 2 µM protein, 10 µM inhibitor, average of 3 experiments, each in duplicate
T6 construct: For all of them, we expressed and purified the catalytic domain separately; His-tag; made in house; host or cells: Escherichia coli

AKT3 Catalytic Domain = target: T7, AKT3 Catalytic Domain (Homo sapiens, UniProt Q9Y243); settings: 2 µM protein, 10 µM inhibitor, average of 3 experiments, each in duplicate
T7 construct: AKT3 (Q9Y243); CD; His-tag; made in house; host or cells: Escherichia coli

FES Catalytic Domain+SH2 = target: T8, FES Catalytic Domain+SH2 (Homo sapiens, UniProt P07332); settings: 2 µM protein, 10 µM inhibitor, average of 3 experiments, each in duplicate
T8 construct: for 8, we also made a longer version containing one or more additional domains; His-tag; made in house; host or cells: Escherichia coli

PAK7 Catalytic Domain = target: T9, PAK7 Catalytic Domain (Homo sapiens, UniProt Q9P286); settings: 2 µM protein, 10 µM inhibitor, average of 3 experiments, each in duplicate
T9 construct: For all of them, we expressed and purified the catalytic domain separately; His-tag; made in house; host or cells: Escherichia coli

DMPK Catalytic Domain = target: T10, DMPK Catalytic Domain (Homo sapiens, UniProt Q09013); settings: 2 µM protein, 10 µM inhibitor, average of 3 experiments, each in duplicate
T10 construct: For all of them, we expressed and purified the catalytic domain separately; His-tag; made in house; host or cells: Escherichia coli
T10 sequence (Q09013 71-339 limits assumed): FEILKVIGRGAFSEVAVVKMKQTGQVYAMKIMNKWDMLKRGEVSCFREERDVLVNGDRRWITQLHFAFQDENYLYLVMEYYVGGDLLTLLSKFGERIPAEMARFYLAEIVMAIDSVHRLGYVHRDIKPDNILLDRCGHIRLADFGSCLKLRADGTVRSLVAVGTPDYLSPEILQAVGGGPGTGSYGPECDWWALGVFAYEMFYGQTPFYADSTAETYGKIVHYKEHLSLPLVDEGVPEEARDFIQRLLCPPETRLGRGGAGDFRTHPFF

SRC Catalytic Domain = SRC Catalytic Domain (Homo sapiens, UniProt P12931); set-up: For all of them, we expressed and purified the catalytic domain separately; His-tag; made in house; host or cells: Escherichia coli; settings: 2 µM protein, 10 µM inhibitor, average of 3 experiments, each in duplicate
CHK2 Catalytic Domain = target: T11, CHK2 Catalytic Domain (Homo sapiens, UniProt O96017); settings: 2 µM protein, 10 µM inhibitor, average of 3 experiments, each in duplicate
T11 construct: For all of them, we expressed and purified the catalytic domain separately; His-tag; made in house; host or cells: Escherichia coli

[2] = target: SRC Catalytic Domain+SH2+SH3 (Homo sapiens, UniProt P12931); settings: 2 µM protein, 10 µM inhibitor, average of 3 experiments, each in duplicate
FAK2 Catalytic Domain = target: T12, FAK2 Catalytic Domain (Homo sapiens, UniProt Q14289); settings: 2 µM protein, 10 µM inhibitor, average of 3 experiments, each in duplicate
T12 construct: For all of them, we expressed and purified the catalytic domain separately; His-tag; made in house; host or cells: Escherichia coli

[3] = target: T13, PAK4 Catalytic Domain+PBD (Homo sapiens, UniProt O96013); settings: 2 µM protein, 10 µM inhibitor, average of 3 experiments, each in duplicate
T13 construct: for 8, we also made a longer version containing one or more additional domains; His-tag; made in house; host or cells: Escherichia coli
T13 sequence (O96013 whole entry, the tested form may be a part): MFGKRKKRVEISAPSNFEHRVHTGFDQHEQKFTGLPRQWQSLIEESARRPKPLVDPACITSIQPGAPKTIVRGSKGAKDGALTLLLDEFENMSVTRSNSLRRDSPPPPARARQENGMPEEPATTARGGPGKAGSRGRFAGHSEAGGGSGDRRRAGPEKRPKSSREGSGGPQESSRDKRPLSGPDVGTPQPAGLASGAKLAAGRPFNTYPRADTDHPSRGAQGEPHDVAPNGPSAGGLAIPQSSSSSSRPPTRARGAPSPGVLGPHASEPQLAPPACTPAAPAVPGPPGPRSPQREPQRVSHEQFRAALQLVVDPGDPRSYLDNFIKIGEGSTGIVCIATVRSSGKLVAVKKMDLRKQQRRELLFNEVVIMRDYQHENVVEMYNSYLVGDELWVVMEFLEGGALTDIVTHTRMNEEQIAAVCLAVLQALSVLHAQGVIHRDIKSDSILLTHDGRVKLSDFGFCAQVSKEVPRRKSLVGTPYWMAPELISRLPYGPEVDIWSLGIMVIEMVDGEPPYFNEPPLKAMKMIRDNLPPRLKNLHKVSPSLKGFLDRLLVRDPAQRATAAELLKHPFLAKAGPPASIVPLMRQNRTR

T6 sequence (O96013 321-572 limits assumed): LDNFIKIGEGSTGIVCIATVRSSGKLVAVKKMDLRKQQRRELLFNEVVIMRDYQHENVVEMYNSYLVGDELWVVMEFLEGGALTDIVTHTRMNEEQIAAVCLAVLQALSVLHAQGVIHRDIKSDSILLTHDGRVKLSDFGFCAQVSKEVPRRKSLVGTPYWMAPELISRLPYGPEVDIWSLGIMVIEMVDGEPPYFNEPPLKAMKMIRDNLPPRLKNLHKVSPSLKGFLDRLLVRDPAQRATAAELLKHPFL
T7 sequence (Q9Y243 122-479): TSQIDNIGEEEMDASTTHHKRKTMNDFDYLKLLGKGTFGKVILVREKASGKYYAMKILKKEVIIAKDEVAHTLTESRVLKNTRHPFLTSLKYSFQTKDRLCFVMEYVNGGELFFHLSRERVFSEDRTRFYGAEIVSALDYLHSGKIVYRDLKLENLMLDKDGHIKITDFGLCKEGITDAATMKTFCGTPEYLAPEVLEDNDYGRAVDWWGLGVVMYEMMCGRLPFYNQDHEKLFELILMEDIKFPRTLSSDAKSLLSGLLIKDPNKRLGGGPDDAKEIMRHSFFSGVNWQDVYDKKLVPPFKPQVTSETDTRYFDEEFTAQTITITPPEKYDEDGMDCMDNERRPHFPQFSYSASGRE
T8 sequence (P07332 448-822 limits assumed): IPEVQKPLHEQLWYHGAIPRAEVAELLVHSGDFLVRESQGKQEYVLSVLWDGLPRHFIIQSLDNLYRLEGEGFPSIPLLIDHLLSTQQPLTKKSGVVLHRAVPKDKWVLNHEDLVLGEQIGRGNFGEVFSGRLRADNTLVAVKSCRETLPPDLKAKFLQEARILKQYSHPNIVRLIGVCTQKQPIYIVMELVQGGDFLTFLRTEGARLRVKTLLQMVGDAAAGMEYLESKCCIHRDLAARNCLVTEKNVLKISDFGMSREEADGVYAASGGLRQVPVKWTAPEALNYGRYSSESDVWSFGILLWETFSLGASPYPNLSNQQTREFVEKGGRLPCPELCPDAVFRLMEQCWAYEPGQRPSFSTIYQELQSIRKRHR
T12 sequence (Q14289 425-683 limits assumed): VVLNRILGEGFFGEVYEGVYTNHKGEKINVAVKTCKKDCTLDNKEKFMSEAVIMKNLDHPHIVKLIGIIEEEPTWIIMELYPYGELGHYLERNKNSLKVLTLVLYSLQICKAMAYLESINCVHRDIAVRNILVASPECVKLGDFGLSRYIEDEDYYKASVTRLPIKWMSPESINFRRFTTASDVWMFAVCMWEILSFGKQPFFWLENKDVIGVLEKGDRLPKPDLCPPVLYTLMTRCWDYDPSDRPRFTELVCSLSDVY
T9 sequence (Q9P286 449-700 limits assumed): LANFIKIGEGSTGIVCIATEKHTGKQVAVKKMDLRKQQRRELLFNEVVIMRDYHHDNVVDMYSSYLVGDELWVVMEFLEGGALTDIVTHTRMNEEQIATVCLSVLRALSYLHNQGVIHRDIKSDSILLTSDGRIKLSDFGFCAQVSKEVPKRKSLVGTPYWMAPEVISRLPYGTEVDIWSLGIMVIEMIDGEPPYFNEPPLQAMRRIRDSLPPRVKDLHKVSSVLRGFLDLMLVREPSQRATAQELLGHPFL
T2 sequence (P07332 561-822 limits assumed): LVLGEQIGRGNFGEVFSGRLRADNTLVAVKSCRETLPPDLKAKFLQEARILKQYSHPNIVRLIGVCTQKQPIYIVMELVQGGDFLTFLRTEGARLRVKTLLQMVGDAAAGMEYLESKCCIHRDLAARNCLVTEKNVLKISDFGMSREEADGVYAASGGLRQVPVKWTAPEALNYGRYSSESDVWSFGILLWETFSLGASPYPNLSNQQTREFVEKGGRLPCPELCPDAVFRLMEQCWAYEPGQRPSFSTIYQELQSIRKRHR
T11 sequence (O96017 220-486 limits assumed): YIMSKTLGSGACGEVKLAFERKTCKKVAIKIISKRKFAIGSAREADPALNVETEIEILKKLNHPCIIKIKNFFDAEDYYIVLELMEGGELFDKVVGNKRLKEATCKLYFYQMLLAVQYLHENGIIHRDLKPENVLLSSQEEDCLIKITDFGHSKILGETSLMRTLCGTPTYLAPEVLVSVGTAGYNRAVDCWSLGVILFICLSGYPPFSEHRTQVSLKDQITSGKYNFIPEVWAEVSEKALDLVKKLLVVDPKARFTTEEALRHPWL

Row | Molecule | Melting temperature (Tm) shift (CDK2 + Cyclin E) [degrees Celcius] | Melting temperature (Tm) shift (FES Catalytic Domain) [degrees Celcius] | Melting temperature (Tm) shift [1] [degrees Celcius] | Melting temperature (Tm) shift (CDK2 + Cyclin A) [degrees Celcius] | Melting temperature (Tm) shift (STK3 Catalytic Domain) [degrees Celcius] | Melting temperature (Tm) shift (PAK4 Catalytic Domain) [degrees Celcius] | Melting temperature (Tm) shift (AKT3 Catalytic Domain) [degrees Celcius] | Melting temperature (Tm) shift (FES Catalytic Domain+SH2) [degrees Celcius] | Melting temperature (Tm) shift (PAK7 Catalytic Domain) [degrees Celcius] | Melting temperature (Tm) shift (DMPK Catalytic Domain) [degrees Celcius] | Melting temperature (Tm) shift (SRC Catalytic Domain) [degrees Celcius] | Melting temperature (Tm) shift (CHK2 Catalytic Domain) [degrees Celcius] | Melting temperature (Tm) shift [2] [degrees Celcius] | Melting temperature (Tm) shift (FAK2 Catalytic Domain) [degrees Celcius] | Melting temperature (Tm) shift [3] [degrees Celcius]
1 | COc1ccc2c(c1)c(C1=C(c3c[nH]c4ccccc34)C(=O)NC1=O)cn2CCCN(C)C [Gö 6983] | 0.1 | 0.9 | 0.7 | 0.4 | 0.2 | 0.0 | 0.0 | 0.7 | 0.1 | 1.9 | 0.2 | 5.6 |  |  | 
2 | Scytonemin [Scytonemin, Lyngbya sp.] | 0.8 |  | 0.4 | 0.3 | 0.5 | 0.6 | 0.0 | 0.2 | 0.0 | 0.3 | 0.0 |  | 0.3 | 0.2 | 0.7
3 | COc1cc(Nc2ncc3ccn(-c4cccc(CCC#N)c4)c3n2)cc(OC)c1OC [Keratinocyte Differentiation Inducer] | 2.3 | 5.5 | 4.3 | 4.3 | 3.6 | 5.5 | 0.0 | 3.4 | 0.0 | 3.2 | 3.0 | 8.3 | 1.8 |  | 7.3
4 | Cc1cc(C=C2C(=O)C=CC2=O)cc(C)c1O [TX-1918] | 0.4 |  |  | 0.4 | 0.1 |  | 4.5 |  |  |  | 0.0 | 2.6 |  | 0.5 | 1.1

Further lines, results first:

Row | Melting temperature (Tm) shift (CDK2 + Cyclin E) [degrees Celcius] | Melting temperature (Tm) shift (FES Catalytic Domain) [degrees Celcius] | Melting temperature (Tm) shift [1] [degrees Celcius] | Melting temperature (Tm) shift (CDK2 + Cyclin A) [degrees Celcius] | Melting temperature (Tm) shift (STK3 Catalytic Domain) [degrees Celcius] | Melting temperature (Tm) shift (PAK4 Catalytic Domain) [degrees Celcius] | Melting temperature (Tm) shift (AKT3 Catalytic Domain) [degrees Celcius] | Melting temperature (Tm) shift (FES Catalytic Domain+SH2) [degrees Celcius] | Melting temperature (Tm) shift (PAK7 Catalytic Domain) [degrees Celcius] | Melting temperature (Tm) shift (DMPK Catalytic Domain) [degrees Celcius] | Melting temperature (Tm) shift (SRC Catalytic Domain) [degrees Celcius] | Melting temperature (Tm) shift (CHK2 Catalytic Domain) [degrees Celcius] | Melting temperature (Tm) shift [2] [degrees Celcius] | Melting temperature (Tm) shift (FAK2 Catalytic Domain) [degrees Celcius] | Melting temperature (Tm) shift [3] [degrees Celcius] | Molecule
5 | 0.2 | 1.0 | 2.3 | 0.9 | 2.3 | 0.9 | 0.1 | 0.0 | 0.6 |  | 1.3 | 2.2 | 1.3 | 0.4 | 0.9 | O=C(c1cc2cc(O)ccc2[nH]1)c1cc2cc(O)ccc2[nH]1 [Flt-3 Inhibitor II]
6 | 0.8 | 0.0 | 1.2 | 0.1 |  | 0.5 | 0.1 | 0.2 | 0.3 | 0.6 | 0.3 | 0.1 | 0.2 | 0.9 | 1.0 | CCCCn1c2ccc(O)cc2c2c3c(c(-c4ccccc4Cl)cc21)C(=O)NC3=O [Wee1 Inhibitor II]
7 | 0.1 | 0.0 | 0.2 | 0.0 | 0.2 | 0.3 | 0.1 | 0.1 | 0.0 | 0.3 | 1.4 | 11.2 | 0.8 |  | 0.0 | COc1cc2ncnc(Nc3ccc(OCc4ccccc4)cc3)c2cc1OC [EGFR/ErbB-2 Inhibitor]
8 | 1.1 | 1.1 | 3.5 |  | 5.2 | 1.9 | 0.7 | 1.0 | 1.7 | 0.6 | 3.1 | 2.2 | 2.8 | 2.8 | 2.1 | O=C1Nc2ccccc2C1=C1Nc2ccccc2C1=NOCCC(O)CO (stereo not shown) [Indirubin Derivative E804]
